Molecules are shown by their SMILES. Converted amounts (≈) assume the structure as drawn. Where two headings read alike, the source gives them in different places. A value given as a limit tells only on which side of the number the result lay.

The term EC50 denotes the concentration that produces a half-maximal response. Read a low EC50 as greater potency.

Data set [1] deals with Burkholderia thailandensis. Description: microbe, parasite or virus in culture. In kind it is cell-based.
The next data set has as its system Bacillus subtilis. Description: MIC/MBC against Bacillus subtilis strains. Format: cell-based.
In a further data set the test system is Burkholderia cenocepacia. Nature of the data set: microbe, parasite or virus in culture. Format: cell-based.
In the next data set the test system is Candida glabrata. Description: microbe, parasite or virus in culture. In kind it is cell-based. The following applies: Nakaseomyces glabratus.
The test system of the next data set is Bacillus thuringiensis. Description: microbe, parasite or virus in culture. In kind it is cell-based.
Another data set deals with Francisella tularensis. Nature of the data set: microbe, parasite or virus in culture. Format: cell-based. The following applies: read-out: Francisella tularensis NR-577 MIC, strain NR-577.
A further data set relates to N. gonorrhoeae. Nature of the data set: microbe, parasite or virus in culture. In kind it is cell-based. The following applies: Neisseria gonorrhoeae.
Data set [2] deals with branched chain amino acid synthesis pathway. Nature of the data set: Transcriptomic (RNAseq) and metabolic mechanism of action studies.
In data set [3] the test system is HepG2 cells. Nature of the data set: Cytotoxicity MTT assay in HepG2 cells. The settings on record: Homo sapiens. In kind it is cell-based. The method, then: Additionally, the antimicrobial compounds were analyzed for cytotoxicity. […] We utilized the standard MTT assay (Promega CellTiter 96) and GraphPad Prism 7 software to determine EC50 values for each analogue. Briefly, 20,000 HepG2 cells in 200 μl of the ATCC recommended media were seeded in each well of a 96-well plate with a moisture barrier created in the outermost wells. The cells were allowed to attach overnight at 37° C., and then observed under phase contrast microscopy for proper morphological characteristics. […] Once incubations were complete, the spectrophotometric absorbance of the samples was measured at a wavelength of 595 nm. […] For the HepaRG assay, NoSpin HepaRG™ cells (Lonza, cat #NSHPRG) were thawed and plated with 20,000 cells per well. They were allowed to attach for 4 h (optimal DME profile per Lonza's testing) before dosing following the identical protocol as above.

Data set [4] concerns HepG2 cells. Nature of the data set: SYTOX permeabilization assay on HepG2 cells. In kind it is cell-based. The settings on record: up to 4× MIC, FIG. 2C.
Data set [5] has as its system S. aureus. Nature of the data set: SYTOX green cell permeability assay on S. aureus. Format: cell-based, Staphylococcus aureus. The settings on record: concentrations relative to the MIC, FIG. 1A.
In data set [6] the test system is S. aureus. Nature of the data set: Macromolecular synthesis assay (glucosamine incorporation into cell wall). In kind it is cell-based, Staphylococcus aureus. The settings on record: dose-response, FIG. 2A-2B.
Another data set concerns Staphylococcus aureus. Nature of the data set: microbe, parasite or virus in culture.
The mark [7] stands for this setting: read-out: Neisseria gonorrhoeae WHO 914 MIC, strain WHO 914.

Regarding `Brc1ccc(Oc2c[nH]c3cc(Br)ccc23)cc1` [174AC, 6-bromo-3-(4-bromophenoxy)-1H-indole], the MIC in data set [1] is over 50 µg/mL; in the data set with Bacillus subtilis, 8 µg/mL (≈ 21.8 µM); against Burkholderia cenocepacia, over 50 µg/mL; in the data set with Candida glabrata, 25 µg/mL (≈ 68.1 µM); against Bacillus thuringiensis (Bacillus thuringiensis Berliner ATCC: 10792) it was 8 µg/mL (≈ 21.8 µM). For the same compound, the values for the MBC against Bacillus subtilis and with Bacillus thuringiensis were 16 µg/mL (≈ 43.6 µM) and 50 µg/mL (≈ 136 µM), respectively.

Take `Brc1ccc(Oc2c[nH]c3ccccc23)cc1` [Compound 156KC, 3-(4-bromophenoxy)-1H-indole]: the MIC with Francisella tularensis stood at 2 µg/mL (≈ 6.94 µM); with N. gonorrhoeae (read-out: Neisseria gonorrhoeae WHO 901 MIC, strain WHO 901) it was 8 µg/mL (≈ 27.8 µM); in the data set on N. gonorrhoeae (setting [7]), 8 µg/mL (≈ 27.8 µM).

As for `Fc1ccc2[nH]cc(Cc3ccc(Br)cc3)c2c1` [Compound 174EB, 3-(4-bromobenzyl)-5-fluoro-1H-indole], the figures for the MIC in the data set with Francisella tularensis and in the data set with N. gonorrhoeae (setting [7]) were 2 µg/mL (≈ 6.58 µM) and 8 µg/mL (≈ 26.3 µM), respectively.

In the case of `Brc1ccc2[nH]cc(Sc3ccccc3Br)c2c1` [Compound 174I, 5-bromo-3-((2-bromophenyl)thio)-1H-indole], the “mechanism of action by transcriptomic and metabolic studies” value in [2] is “branched chain amino acid biosynthesis inhibition”. The compound also gave an EC50 with HepG2 cells [3] of 25.4 µg/mL (≈ 66.3 µM). For the same compound, the “permeabilization of HepG2 cells (SYTOX)” value with HepG2 cells [4] was “no permeabilization of HepG2 cells”. For the same compound, the “cell permeability by SYTOX green fluorescence” value in the data set on S. aureus [5] is “clear dose-dependent increase in permeability”. Further, the “cell wall synthesis inhibition (glucosamine incorporation)” value with S. aureus [6] is recorded as “substantial cell wall synthesis inhibition”.

With `Nc1ccccc1Sc1c[nH]c2ccc(Br)cc12` [Compound 174M, 2-((5-bromo-1H-indol-3-yl)thio)aniline], the MIC stood at 12.5 µg/mL (≈ 39.2 µM) with Staphylococcus aureus (MRSA, read-out: Staphylococcus aureus MIC, MRSA strain HM-467); 12.5 µg/mL (≈ 39.2 µM) in the data set on Staphylococcus aureus (MRSA, read-out: Staphylococcus aureus MIC, MRSA strain NK-41886); 12.5 µg/mL (≈ 39.2 µM) with Staphylococcus aureus (MRSA, read-out: Staphylococcus aureus MIC, MRSA strain NR-13533); 12.5 µg/mL (≈ 39.2 µM) with Staphylococcus aureus (MRSA, read-out: Staphylococcus aureus MIC, MRSA strain NR-28983); 12.5 µg/mL (≈ 39.2 µM) with Staphylococcus aureus (MRSA, read-out: Staphylococcus aureus MIC, MRSA strain NR-41875); 12.5 µg/mL (≈ 39.2 µM) in the data set on Staphylococcus aureus (MRSA, read-out: Staphylococcus aureus MIC, MRSA strain NR-41876). In addition, the MIC in the data set on Staphylococcus aureus (MRSA, read-out: Staphylococcus aureus MIC, MRSA strain NR-41877) is 25 µg/mL (≈ 78.3 µM); in the data set on Staphylococcus aureus (MRSA, read-out: Staphylococcus aureus MIC, MRSA strain NR-41878) it was 12.5 µg/mL (≈ 39.2 µM); in the data set on Staphylococcus aureus (read-out: Staphylococcus aureus MIC, VSSA NR-49121), 12.5 µg/mL (≈ 39.2 µM). Further, in data set [2], the “mechanism of action by transcriptomic and metabolic studies” value is on record as “branched chain amino acid biosynthesis inhibition”. Further, the EC50 with HepG2 cells [3] was 26.5 µg/mL (≈ 83 µM). Further, the “permeabilization of HepG2 cells (SYTOX)” value in the data set on HepG2 cells [4] is “no permeabilization of HepG2 cells”.

As for `CC[C@H](C)[C@H](NC(=O)CN)C(=O)NCC(=O)N[C@@H](C)C(=O)N[C@H](C(=O)N[C@@H](CC(C)C)C(=O)N[C@@H](CCCCN)C(=O)N[C@H](C(=O)N[C@@H](CC(C)C)C(=O)N[C@H](C(=O)N[C@H](C(=O)NCC(=O)N[C@@H](CC(C)C)C(=O)N1CCC[C@H]1C(=O)N[C@@H](C)C(=O)N[C@@H](CC(C)C)C(=O)N[C@H](C(=O)N[C@@H](CO)C(=O)N[C@@H](Cc1c[nH]c2ccccc12)C(=O)N[C@H](C(=O)N[C@@H](CCCCN)C(=O)N[C@@H](CCCNC(=N)N)C(=O)N[C@@H](CCCCN)C(=O)N[C@@H](CCCNC(=N)N)C(=O)N[C@@H](CCC(N)=O)C(=O)N[C@@H](CCC(N)=O)C(N)=O)[C@@H](C)CC)[C@@H](C)CC)[C@@H](C)O)[C@@H](C)O)C(C)C)C(C)C` [melittin, reference compound], in the data set on S. aureus [5], the “cell permeability by SYTOX green fluorescence” value is “permeabilizes cells”.

Consider `CN[C@H](CC(C)C)C(=O)N[C@H]1C(=O)N[C@@H](CC(N)=O)C(=O)N[C@H]2C(=O)N[C@H]3C(=O)N[C@H](C(=O)N[C@H](C(=O)O)c4cc(O)cc(O)c4-c4cc3ccc4O)[C@H](O)c3ccc(c(Cl)c3)Oc3cc2cc(c3O[C@@H]2O[C@H](CO)[C@@H](O)[C@H](O)[C@H]2O[C@H]2C[C@](C)(N)[C@H](O)[C@H](C)O2)Oc2ccc(cc2Cl)[C@H]1O` [vancomycin, reference compound], for which the “cell wall synthesis inhibition (glucosamine incorporation)” value in the data set on S. aureus [6] was “increasingly inhibits glucosamine from incorporating into a cell wall”.

The values are drawn from US20250382268A1, “METHODS AND COMPOSITIONS FOR SELECTIVELY INHIBITING PATHOGENIC MICROBES” (priority 2019, published 2025).
